Where “and” joins values, the source holds several entries; their conditions need not be identical. Equal values may be shown once. Entries after “also recorded” stand apart in the source; their conditions may differ.
Tested on: unresectable or metastatic melanoma
Assay: Single-site correlative study: RECIST v1.1 response to immune checkpoint inhibitor therapy (ICT) in metastatic melanoma patients
Type: in vivo, human
Settings: for RECIST Category / Change in tumor size (%): individual metastatic melanoma patient, one line per patient; for Change in tumor size (%): RECIST v1.1; for number of patients who responded: monotherapy, metastatic melanoma
Procedure: Patients and Methods. The study design was a single-site, correlative study of the effects of gut microbiota and metabolites on ICT efficacy in 39 patients. The study was approved by the University of Texas Southwestern Medical Center Institutional Review Board (IRB # STU012016-056). The study was conducted in accordance with the Declaration of Helsinki. The inventors enrolled patients with a histologic diagnosis of unresectable or metastatic melanoma that were scheduled to begin ICT and able to collect stool specimens, store them in a freezer and deliver them to the University of Texas Southwestern Cancer Center facility. In addition, patients had to have measurable disease by Response Evaluation Criteria in Solid Tumors (RECIST) v1.1. Tumor sizes were evaluated within 4 weeks prior to beginning therapy by exams, CT scans, and/or MRIs. […] After informed consent, stool samples were collected and immediately frozen until transferred to the University of Texas Southwestern Medical Center at pretreatment and various times post-therapy. Repeat exams and scans were obtained every 2-3 months. Demographics, antibiotic use, and probiotic exposure were recorded for each patient. Patient response, stable disease and progression were evaluated by RECIST v1.1 criteria as reported.

| Substance | RECIST Category | Change in tumor size (%) | RECIST responders (patients/treated) (metastatic melanoma patients) | number of patients who responded |
| --- | --- | --- | --- | --- |
| pembrolizumab | Progression; also recorded: Response; also recorded: Stable | 53% and 81% and −36% and −68% and 100% (2×) and −27% and −14% and 0% and 125% and 46% and −48% and 131% | 3/13 |  |
| ipilimumab | Response | −100% |  | One |
| nivolumab | Response | −70% |  | One |
